The results in this text go back to patent publication US8304539B2, “Fused heteroaryl modulators of glucocorticoid receptor, AP-1, and/or NF-κB activity and use thereof” (Bristol-Myers Squibb Company, priority 2008, dated 2012).

The assay concerns AP-1. Kind of assay: Cellular transrepression assay (AP-1 luciferase reporter in A549 cells, PMA activated). Type of assay: cell-based. Particulars: 7 h, 10 ng/ml PMA; for EC50: read-out: AP-1 (EC50, nM) (measured in cellular transrepression assay); for Emax: read-out: AP-1 Max % inhibition (measured in cellular transrepression assay). The method, then:
Cellular Transrepressional Assay
To measure the ability of test molecules to inhibit AP-1 induced transcriptional activity we utilized an A549 cell which was stably transfected with a plasmid containing 7×AP-1 DNA binding sites (pAP-1-Luc plasmid, Stratagene Co. La Jolla, Calif.) followed by the gene for luciferase. Cells were activated with 10 ng/ml of phorbol myristic acid (PMA) plus or minus test molecules for 7 hours. After 7 hours a luciferase reagent was added to measure luciferase enzymatic activity in the cell. After a 10 minute incubation of luciferase reagent with cells, luminescence was measured in a TopCount luminescence counter. Repression of AP-1 activity was calculated as the percentage decrease in the signal induced by PMA alone. Test molecules were analyzed in the concentration range from 0.1 nM to 40 μM. EC50s were determined by using standard curve fitting methods such as Excel fit (Microsoft Co.). An EC50 is the test molecule concentration at which there is a 50% repression of the maximal inhibition of transcription, i.e. a 50% reduction of AP-1 activity.

`CN(C)C(=O)c1ccc(-c2ccc3c(n2)Oc2ncccc2C3C(C)(C)C(=O)Nc2nncs2)cc1` (single isomer, unassigned) [Example 8]: the EC50 (usually the concentration needed to bring the measured effect to its halfway point) is 194 nM and the Emax was determined as 45.2%.
Taken in the same sequence, the figures for `CCN(C)C(=O)c1ccc(-c2ccc3c(n2)Oc2ncccc2C3C(C)(C)C(=O)Nc2nncs2)cc1` (single isomer, unassigned) [Example 9] were 66.2 nM and 55.4%.
Taken in the same sequence, the figures for `CC[S+]([O-])c1ccc(-c2ccc3c(n2)Oc2nc(C)ccc2C3C(C)(C)C(=O)Nc2nncs2)cc1` (stereo in doubt) [Example 81, 2-((5S)-2-(4-(ethylsulfinyl)phenyl)-8-methyl-5H-pyrido[3′,2′:5,6]pyrano[2,3-b]pyridin-5-yl)-2-methyl-N-1,3,4-thiadiazol-2-ylpropanamide] were 368 nM and 28.7%.
The corresponding values for `Cc1ccc2c(n1)Oc1nc(-c3ccc([S+]([O-])C(C)C)cc3)ccc1C2C(C)(C)C(=O)Nc1nncs1` (stereo in doubt) [Example 82, 2-((5S)-2-(4-(isopropylsulfinyl)phenyl)-8-methyl-5H-pyrido[3′,2′:5,6]pyrano[2,3-b]pyridin-5-yl)-2-methyl-N-1,3,4-thiadiazol-2-ylpropanamide] are 181 nM and 34.4%.
`CN(C)C(=O)c1ccc(-c2ccc3c(n2)Oc2cnccc2C3C(C)(C)C(=O)Nc2nncs2)cc1` (centres unmarked) [Example 1, 4-(5-(1,1-dimethyl-2-oxo-2-(1,3,4-thiadiazol-2-ylamino)ethyl)-5H-pyrido[4′,3′:5,6]pyrano[2,3-b]pyridin-2-yl)-N,N-dimethylbenzamide]: the concentration giving a half-maximal response (EC50) was 255 nM and the Emax is 29.3%.
For `CN(C)C(=O)c1ccc(-c2ccc3c(n2)Oc2ncccc2C3C(C)(C)C(=O)Nc2nncs2)cc1` (centres unmarked) [Example 3, 4-(5-(1,1-dimethyl-2-oxo-2-(1,3,4-thiadiazol-2-ylamino)ethyl)-5H-pyrido[3′,2′:5,6]pyrano[2,3-b]pyridin-2-yl)-N,N-dimethylbenzamide], the EC50 amounted to 189 nM and the Emax was 38.6%.
As to `CCN(C)C(=O)c1ccc(-c2ccc3c(n2)Oc2ncccc2C3C(C)(C)C(=O)Nc2nncs2)cc1` (centres unmarked) [Example 4], the concentration giving a half-maximal response (EC50) came to 197 nM and the Emax came out at 46.6%.
The corresponding values for `CC(C)(C(=O)Nc1nncs1)C1c2cccnc2Oc2nc(-c3ccc(C(=O)N4CCOCC4)cc3)ccc21` (centres unmarked) [Example 5] are 142 nM and 33.9%.
Taken in the same sequence, the figures for `Cc1ccc2c(n1)Oc1nc(-c3ccc(C(=O)N(C)C)cc3)ccc1C2C(C)(C)C(=O)Nc1nncs1` (centres unmarked) [Example 10, 4-(5-(1,1-dimethyl-2-oxo-2-(1,3,4-thiadiazol-2-ylamino)ethyl)-8-methyl-5H-pyrido[3′,2′:5,6]pyrano[2,3-b]pyridin-2-yl)-N,N-dimethylbenzamide] were 189 nM and 39%.
Taken in the same sequence, the figures for `Cc1ccc2c(n1)Oc1nc(-c3ccc(C(=O)N(C)C)cc3)ccc1[C@H]2C(C)(C)C(=O)Nc1nncs1` [Example 11] were 90.1 nM and 45.2%.
With `Cc1ccc2c(n1)Oc1nc(-c3ccc(C(=O)N(C)C)cc3)ccc1[C@H]2C(C)(C)C(=O)Nc1nnc(C)s1` [Example 12], the EC50 turned out to be 297 nM and the Emax was 26.6%.
Taken in the same sequence, the figures for `Cc1ccc2c(n1)Oc1nc(-c3ccc(C(=O)N(C)C)cc3)ccc1[C@H]2C(C)(C)C(=O)Nc1ncns1` [Example 13] were 233 nM and 38.1%.
The corresponding values for `CCN(C)C(=O)c1ccc(-c2ccc3c(n2)Oc2nc(C)ccc2C3C(C)(C)C(=O)Nc2nncs2)cc1` (centres unmarked) [Example 14, 4-(5-(1,1-dimethyl-2-oxo-2-(1,3,4-thiadiazol-2-ylamino)ethyl)-8-methyl-5H-pyrido[3′,2′:5,6]pyrano[2,3-b]pyridin-2-yl)-N-ethyl-N-methylbenzamide] are 97.2 nM and 58%.
Taken in the same sequence, the figures for `Cc1ccc2c(n1)Oc1nc(-c3ccc(C(=O)N4CCOCC4)cc3)ccc1C2C(C)(C)C(=O)Nc1nncs1` (centres unmarked) [Example 15] were 460 nM and 47.4%.
Regarding `Cc1ccc2c(n1)Oc1nc(-c3ccc(C(=O)N4CCCC4)cc3)ccc1C2C(C)(C)C(=O)Nc1nncs1` (centres unmarked) [Example 16], the EC50 is 541 nM and the Emax was found to be 40.2%.
Taken in the same sequence, the figures for `CC(=O)c1ccc(-c2ccc3c(n2)Oc2nc(C)ccc2C3C(C)(C)C(=O)Nc2nncs2)cc1` (centres unmarked) [Example 17] were 72.8 nM and 42.4%.
Regarding `CCN(C)C(=O)c1ccc(-c2ccc3c(n2)Oc2nc(C)ccc2C3C(C)(C)C(=O)Nc2nncs2)cc1F` (centres unmarked) [Example 18], the EC50 amounted to 52 nM and the Emax stood at 47.8%.
Taken in the same sequence, the figures for `Cc1ccc2c(n1)Oc1nc(N(C)C)ccc1C2C(C)(C)C(=O)Nc1nncs1` (centres unmarked) [Example 20, 2-(2-(dimethylamino)-8-methyl-5H-pyrido[3′,2′:5,6]pyrano[2,3-b]pyridin-5-yl)-2-methyl-N-1,3,4-thiadiazol-2-ylpropanamide] were 198 nM and 27.9%.
Regarding `CCN(C)C(=O)c1ccc(-c2ccc3c(n2)Oc2nc(C)ccc2[C@@H]3C(C)(C)C(=O)Nc2nncs2)cc1F` [Example 21], the EC50 was determined as 166 nM and the Emax is 49.7%.
The corresponding values for `CCN(C)C(=O)c1ccc(-c2ccc3c(n2)Oc2nc(C)ccc2[C@@H]3C(C)(C)C(=O)Nc2nncs2)cc1` [Example 22] are 81.9 nM and 59.3%.
The corresponding values for `Cc1ccc2c(n1)Oc1nc(-c3ccc(SC(C)C)cc3)ccc1[C@H]2C(C)(C)C(=O)Nc1nncs1` [Example 27] are 41.9 nM and 32.4%.
Taken in the same sequence, the figures for `Cc1ccc2c(n1)Oc1nc(-c3ccc(OC(C)C)cc3)ccc1[C@H]2C(C)(C)C(=O)Nc1nncs1` [Example 30] were 41.6 nM and 34.6%.
For the compound `Cc1ccc2c(n1)Oc1nc(-c3ccc(C(=O)N4CCCC4)cc3)ccc1[C@H]2C(C)(C)C(=O)Nc1nncs1` [Example 31], the EC50 is 376 nM and the Emax was 49.3%.
As for `CCOC(=O)c1nnc(NC(=O)C(C)(C)[C@H]2c3ccc(C)nc3Oc3nc(-c4ccc(C(=O)N(C)CC)cc4)ccc32)s1` [Example 32], the concentration giving a half-maximal response (EC50) came to 176 nM and the Emax amounted to 74.3%.
For `CCN(C)C(=O)c1ccc(-c2ccc3c(n2)Oc2nc(C)ccc2[C@@H]3C(C)(C)C(=O)Nc2ncc(C)s2)cc1` [Example 33], the EC50 came to 449 nM and the Emax amounted to 50.8%.
Taken in the same sequence, the figures for `CCN(C)C(=O)c1ccc(-c2ccc3c(n2)Oc2nc(C)ccc2[C@@H]3C(C)(C)C(=O)Nc2nccs2)cc1` [Example 34] were 14.6 nM and 64.9%.
The corresponding values for `CCN(C)C(=O)c1ccc(-c2ccc3c(n2)Oc2nc(C)ccc2[C@@H]3C(C)(C)C(=O)Nc2nnc(C)s2)cc1` [Example 35] are 175 nM and 45%.
Turning to `Cc1ccc2c(n1)Oc1nc(-c3ccc([S+](C)[O-])cc3)ccc1C2C(C)(C)C(=O)Nc1nncs1` [Example 36, (4-((5S)-5-(1,1-dimethyl-2-oxo-2-(1,3,4-thiadiazol-2-ylamino)ethyl)-8-methyl-5H-pyrido[3′,2′:5,6]pyrano[2,3-b]pyridin-2-yl)phenyl)(methyl)sulfoniumolate], the 50% effective concentration (EC50) is 526 nM and the Emax amounted to 26.9%.
As for `Cc1ccc2c(n1)Oc1nc(-c3ccc(C(=O)N4CCC4)cc3)ccc1[C@H]2C(C)(C)C(=O)Nc1nncs1` [Example 38], the EC50 turned out to be 470 nM and the Emax was 41.9%.
As to `Cc1ccc2c(n1)Oc1nc(-c3ccc(C(=O)N4CCC(F)(F)C4)cc3)ccc1[C@H]2C(C)(C)C(=O)Nc1nncs1` [Example 40], the EC50 is 539 nM and the Emax was determined as 43.3%.
The corresponding values for `Cc1ccc2c(n1)Oc1nc(-c3ccc(C(=O)N(C)C4CC4)cc3)ccc1[C@H]2C(C)(C)C(=O)Nc1nncs1` [Example 41] are 359 nM and 39.2%.
Consider `Cc1ccc2c(n1)Oc1nc(-c3ccc(C(=O)N4CCOCC4)c(F)c3)ccc1[C@H]2C(C)(C)C(=O)Nc1nncs1` [Example 42], for which the concentration giving a half-maximal response (EC50) amounted to 228 nM and the Emax is 43.6%.
Taken in the same sequence, the figures for `CCN(C)C(=O)c1ccc(-c2ccc3c(n2)Oc2nc(C)ccc2[C@@H]3C(C)(C)C(=O)Nc2nnc(C(=O)NC3CC3)s2)cc1` [Example 44] were 589 nM and 60.8%.
Consider `CCN(C)C(=O)c1ccc(-c2ccc3c(n2)Oc2nc(C)ccc2[C@@H]3C(C)(C)C(=O)Nc2nnc(C(=O)NC)s2)cc1` [Example 46], for which the concentration for a half-maximal effect (EC50) turned out to be 759 nM and the Emax turned out to be 36%.
Taken in the same sequence, the figures for `CCNC(=O)c1nnc(NC(=O)C(C)(C)[C@H]2c3ccc(C)nc3Oc3nc(-c4ccc(C(=O)N(C)CC)cc4)ccc32)s1` [Example 48] were 341 nM and 59.4%.
For `CCN(C)C(=O)c1ccc(-c2ccc3c(n2)Oc2nc(C)ccc2[C@@H]3C(C)(C)C(=O)Nc2nnc(C(=O)NC3CCC3)s2)cc1` [Example 49], the EC50 was 98 nM and the Emax was determined as 66.3%.
Taken in the same sequence, the figures for `CCN(C)C(=O)c1ccc(-c2ccc3c(n2)Oc2nc(C)ccc2[C@@H]3C(C)(C)C(=O)Nc2nnc(C(=O)N3CCOCC3)s2)cc1` [Example 50] were 908 nM and 35.4%.
